From patent US12325697B2 (Nimbus Clio, Inc., priority 2021, dated 2025)
pEC50, pIC50: −log10 of the molar value. Where a name gives a salt, the structure may show the parent alone. Read-outs that look alike come from different tables or passages of the source.

Legend:
[1] = test system: Phospho-Zap70 (Y-319) in Jurkat wild-type (clone E6-1) cells; assay: Jurkat pZAP70 HTRF Assay; format: cell-based; details: Homo sapiens
[2] = test system: Jurkat (clone E6-1) cells, NFAT luciferase reporter; assay: Jurkat Reporter Assay (NFAT Luciferase); format: cell-based; details: Homo sapiens; for pEC50: anti-CD3 stimulation, 6 hr, read-out: Jurkat NFAT EC50
[3] = target: Recombinant human Cbl-b (aa 36-427) (Homo sapiens (Human), UniProt Q13191); assay: Cbl-b Biochemical Assay (TR-FRET); details: read-out: TR-FRET hCbl-b IC50
In short: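 IC50 from 4-parameter fit of % inhibition (DMSO max, reference-inhibitor min), duplicate ten-point series. Compound preincubated with 6 nM Cbl-b, then Src-Zap70 (1-2.5 nM)/0.5 mM ATP reaction 60 min RT; EDTA quench with labelled UBE2D2-Ub and streptavidin-terbium, 60 min, HTRF at 520 nm.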

Chain of Recombinant human Cbl-b (aa 36-427) (Q13191 36-427): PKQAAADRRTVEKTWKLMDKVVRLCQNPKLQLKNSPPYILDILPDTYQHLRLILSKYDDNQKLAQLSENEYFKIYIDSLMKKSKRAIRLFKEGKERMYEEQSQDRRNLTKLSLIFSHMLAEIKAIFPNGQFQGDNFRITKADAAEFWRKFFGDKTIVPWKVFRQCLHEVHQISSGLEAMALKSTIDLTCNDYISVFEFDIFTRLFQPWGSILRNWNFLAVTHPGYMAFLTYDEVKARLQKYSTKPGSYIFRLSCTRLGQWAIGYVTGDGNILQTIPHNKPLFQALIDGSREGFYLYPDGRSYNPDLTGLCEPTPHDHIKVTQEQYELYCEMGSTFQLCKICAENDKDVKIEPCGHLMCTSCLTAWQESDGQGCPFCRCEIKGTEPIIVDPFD

Structure (SMILES) | pEC50 ([1]; anti-CD3 5 μg/ml, 3 hr, read-out: ZAP70 Jurkat EC50) | pEC50 [2] | pIC50 [3] | EC50 ([1]; 3 h, read-out: ZAP70 Jurkat EC50 (μM)) [µM] | EC50 ([2]; 6 h, read-out: Jurkat NFAT EC50 (μM)) [µM]
Cn1cnnc1-c1cc(F)ccc1-c1cc(C2CC2)nc(N2Cc3ccc(CO)cc3C2=O)c1 [AGH-2, 2-{6-Cyclopropyl-4-[4-fluoro-2-(4-methyl-1,2,4-triazol-3-yl)phenyl]pyridin-2-yl}-6-(hydroxymethyl)-3H-isoindol-1-one] | 5.00 to 6.00 | > 6.70 | ≥ 6.70 |  | 
CCNc1cc(-c2ccc(F)cc2-c2nncn2C)cc(N2Cc3c(cc(COCCOC)cc3C(F)(F)F)C2=O)n1 |  |  |  | 0.2 to 1 | < 0.2
CCNc1cc(-c2c(-c3nncn3C)cnn2C)cc(N2Cc3c(cc(COCC4(F)CCC4)cc3C(F)(F)F)C2=O)n1 [AFP-2, 2-[6-(Ethylamino)-4-[2-methyl-4-(4-methyl-1,2,4-triazol-3-yl)pyrazol-3-yl]pyridin-2-yl]-6-{[(1-fluorocyclobutyl)methoxy]methyl}-4-(trifluoromethyl)-3H-isoindol-1-one] |  | 6.00 to 6.70 | ≥ 6.70 |  | 
Cn1cnnc1-c1ccccc1-c1cccc(N2Cc3c(cc(CO[C@@H]4CCC[C@@H]4O)cc3C(F)(F)F)C2=O)c1 [AV-3, 6-((((1R,2S)-2-Hydroxycyclopentyl)oxy)methyl)-2-(2′-(4-methyl-4H-1,2,4-triazol-3-yl)-[1,1′-biphenyl]-3-yl)-4-(trifluoromethyl)isoindolin-1-one] |  | 5.00 to 6.00 | 6.00 to 6.70 |  | 
Cn1cnnc1-c1cc(C#N)ccc1-c1cccc(N2Cc3c(cc(CN[C@@H]4CCC[C@@H]4O)cc3C(F)(F)F)C2=O)c1 [BE-3, 3′-(6-((((1R,2S)-2-Hydroxycyclopentyl)amino)methyl)-1-oxo-4-(trifluoromethyl)isoindolin-2-yl)-2-(4-methyl-4H-1,2,4-triazol-3-yl)-[1,1′-biphenyl]-4-carbonitrile] |  | > 6.70 | ≥ 6.70 |  | 
CCOc1cc(-c2ccc(C#N)cc2-c2nncn2C)cc(N2Cc3c(cc(COCCNC)cc3C(F)(F)F)C2=O)n1 [AHE-4] |  | 5.00 to 6.00 | ≥ 6.70 |  | 
Cn1cnnc1-c1cc(C#N)ccc1-c1cccc(N2Cc3c(cc(CNCCO)cc3C(F)(F)F)C2=O)c1 [AEA-2, 3′-(6-{[(2-Hydroxyethyl)amino]methyl}-1-oxo-4-(trifluoromethyl)-3H-isoindol-2-yl)-2-(4-methyl-1,2,4-triazol-3-yl)-[1,1′-biphenyl]-4-carbonitrile] |  | 5.00 to 6.00 | ≥ 6.70 |  | 
Cc1ccc2c(c1)C(=O)N(c1cc(-c3ccc(F)cc3-c3nncn3C)cc(C(C)C)n1)C2 [AFY-1, 2-(4-(4-fluoro-2-(4-methyl-4H-1,2,4-triazol-3-yl)phenyl)-6-isopropylpyridin-2-yl)-6-methylisoindolin-1-one] |  | 4.30 to 5.00 | 5.00 to 6.00 |  | 
CCNc1cc(-c2nn(CC(C)C)cc2-c2nncn2C)cc(N2Cc3c(cccc3C(F)(F)F)C2=O)n1 [AGX-8, 2-[6-(Ethylamino)-4-[4-(4-methyl-1,2,4-triazol-3-yl)-1-(2-methylpropyl)pyrazol-3-yl]pyridin-2-yl]-4-(trifluoromethyl)-3H-isoindol-1-one] |  | 4.30 to 5.00 | 4.30 to 5.00 |  | 
Cn1cnnc1-c1ccccc1-c1cccc(N2Cc3c(cc(COC4CCN(C(=O)OC(C)(C)C)CC4)cc3C(F)(F)F)C2=O)c1 [BB-1, tert-Butyl 4-((2-(2′-(4-methyl-4H-1,2,4-triazol-3-yl)-[1,1′-biphenyl]-3-yl)-3-oxo-7-(trifluoromethyl)isoindolin-5-yl)methoxy)piperidine-1-carboxylate] |  | 4.30 to 5.00 | 6.00 to 6.70 |  | 
CCNc1cc(-c2c(-c3nncn3C)cnn2C)cc(N2Cc3c(cc(CO[C@H]4CCC[C@H]4O)cc3C(F)(F)F)C2=O)n1 [ADI-1, 2-[6-(Ethylamino)-4-[2-methyl-4-(4-methyl-1,2,4-triazol-3-yl)pyrazol-3-yl]pyridin-2-yl]-6-({[(1S,2R)-2-hydroxycyclopentyl]oxy}methyl)-4-(trifluoromethyl)-3H-isoindol-1-one] |  | 6.00 to 6.70 | ≥ 6.70 |  | 
Cn1cnnc1-c1cc(C#N)ccc1-c1ccnc(N2Cc3c(cc(CO)cc3C(F)(F)F)C2=O)c1 [AEX-2, 4-{2-[6-(Hydroxymethyl)-1-oxo-4-(trifluoromethyl)-3H-isoindol-2-yl]pyridin-4-yl}-3-(4-methyl-1,2,4-triazol-3-yl) benzonitrile] |  | 5.00 to 6.00 | ≥ 6.70 |  | 
CCNc1cc(-c2c(-c3nncn3C)cnn2C)cc(N2Cc3c(cc(CNCCOCCOCCOCCNC(=O)CCc4ccc5n4[B-](F)(F)[N+]4=C(C)C=C(C)C4=C5)cc3C(F)(F)F)C2=O)n1 [ADD-2, 4-{2-[(1-{2-[6-(Ethylamino)-4-[2-methyl-4-(4-methyl-1,2,4-triazol-3-yl)pyrazol-3-yl]pyridin-2-yl]-3-oxo-7-(trifluoromethyl)-1H-isoindol-5-yl}-5,8,11-trioxa-2-azatridecan-13-yl)carbamoyl]ethyl}-2,2-difluoro-10,12-dimethyl-1lambda5,3-diaza-2-boratricyclo[7.3.0.0^{3,7}]dodeca-1(12),4,6,8,10-pentaen-1-ylium-2-uide] |  | 4.30 to 5.00 | 4.30 to 5.00 |  | 
COc1ccc2c(c1)CN(c1cc(-c3ccccc3-c3nncn3C)cc(C3CC3)n1)C2=O [AER-1] |  | 4.30 to 5.00 | ≥ 6.70 |  | 
CCOc1cc(N2Cc3c(cccc3C(F)(F)F)C2=O)cc(C2(Cc3nncn3C)COC2)c1 [AHM-12, 2-(3-Ethoxy-5-[3-[(4-methyl-1,2,4-triazol-3-yl)methyl]oxetan-3-yl]phenyl)-4-(trifluoromethyl)-3H-isoindol-1-one] |  | 5.00 to 6.00 | 6.00 to 6.70 |  | 
Cn1cnnc1-c1ccccc1-c1cccc(N2Cc3c(cc(CO[C@@H]4CCC[C@H]4O)cc3C(F)(F)F)C2=O)c1 [ADL-4, 6-({[(1R,2R)-2-Hydroxycyclopentyl]oxy}methyl)-2-[2′-(4-methyl-1,2,4-triazol-3-yl)-[1,1′-biphenyl]-3-yl]-4-(trifluoromethyl)-3H-isoindol-1-one] |  | 5.00 to 6.00 | ≥ 6.70 |  | 
CCNc1cc(-c2c(-c3nncn3C)cnn2C)cc(N2Cc3c(cc(COCC(C)(C)O)cc3C(F)(F)F)C2=O)n1 [ADY-2, 2-[6-(Ethylamino)-4-[2-methyl-4-(4-methyl-1,2,4-triazol-3-yl)pyrazol-3-yl]pyridin-2-yl]-6-[(2-hydroxy-2-methylpropoxy)methyl]-4-(trifluoromethyl)-3H-isoindol-1-one] |  | 6.00 to 6.70 | ≥ 6.70 |  | 
Cn1cnnc1-c1cc(C#N)ccc1-c1cccc(C(=O)Nc2cc(CN[C@@H]3CCC[C@@H]3O)cc(C(F)(F)F)c2N)c1 [ADW-5, N-[2-Amino-5-({[(1R,2S)-2-hydroxycyclopentyl]amino}methyl)-3-(trifluoromethyl)phenyl]-4′-cyano-2′-(4-methyl-1,2,4-triazol-3-yl)-[1,1′-biphenyl]-3-carboxamide] |  | 4.30 to 5.00 | 5.00 to 6.00 |  | 
C[C@H](Cc1nncn1C)c1cc(NS(C)(=O)=O)nc(N2Cc3c(cccc3C(F)(F)F)C2=O)c1 [AHK-1, N-[4-[(2R)-1-(4-Methyl-1,2,4-triazol-3-yl)propan-2-yl]-6-[1-oxo-4-(trifluoromethyl)-3H-isoindol-2-yl]pyridin-2-yl]methanesulfonamide] |  | 4.30 to 5.00 | 6.00 to 6.70 |  | 
CCNc1cc(-c2c(-c3nncn3C)cnn2C)cc(N2Cc3ccc(CNCC4(O)CCC4)cc3C2=O)n1 [AEE-2, 2-[6-(Ethylamino)-4-[2-methyl-4-(4-methyl-1,2,4-triazol-3-yl)pyrazol-3-yl]pyridin-2-yl]-6-({[(1-hydroxycyclobutyl)methyl]amino}methyl)-3H-isoindol-1-one] |  | 6.00 to 6.70 | ≥ 6.70 |  | 
CCNc1cc(-c2ccccc2-c2nncn2C)cc(N2Cc3c(cc(COC4CCNCC4)cc3C(F)(F)F)C2=O)n1 [BA-4, 2-(6-(Ethylamino)-4-(2-(4-methyl-4H-1,2,4-triazol-3-yl)phenyl)pyridin-2-yl)-6-((piperidin-4-yloxy)methyl)-4-(trifluoromethyl)isoindolin-1-one, HCl] |  | 5.00 to 6.00 | ≥ 6.70 |  | 
Cn1cnnc1-c1ccccc1-c1cccc(N2Cc3c(cc(Br)cc3C(F)(F)F)C2=O)c1 [AY-1, 6-Bromo-2-(2′-(4-methyl-4H-1,2,4-triazol-3-yl)-[1,1′-biphenyl]-3-yl)-4-(trifluoromethyl)isoindolin-1-one] |  | 4.30 to 5.00 | 6.00 to 6.70 |  | 
CCNc1cc(-c2c(-c3nncn3C)cnn2C)cc(N2Cc3c(cc(COc4cnoc4)cc3C(F)(F)F)C2=O)n1 [ADE-2, 2-[6-(Ethylamino)-4-[2-methyl-4-(4-methyl-1,2,4-triazol-3-yl)pyrazol-3-yl]pyridin-2-yl]-6-[(1,2-oxazol-4-yloxy)methyl]-4-(trifluoromethyl)-3H-isoindol-1-one] |  | 5.00 to 6.00 | ≥ 6.70 |  | 
CCCn1cc(-c2nncn2C)c(-c2cc(NCC)nc(N3Cc4c(cccc4C(F)(F)F)C3=O)c2)n1 [AHD-9, 2-[6-(Ethylamino)-4-[4-(4-methyl-1,2,4-triazol-3-yl)-1-propylpyrazol-3-yl]pyridin-2-yl]-4-(trifluoromethyl)-3H-isoindol-1-one] |  | 4.30 to 5.00 | 4.30 to 5.00 |  | 
Cn1cnnc1-c1cc(C#N)ccc1-c1cc(C2CC2)nc(N2Cc3c(cc(COCCO)cc3C(F)(F)F)C2=O)c1 [AHF-4, 4-(2-Cyclopropyl-6-{6-[(2-hydroxyethoxy)methyl]-1-oxo-4-(trifluoromethyl)-3H-isoindol-2-yl}pyridin-4-yl)-3-(4-methyl-1,2,4-triazol-3-yl)benzonitrile] |  | > 6.70 | ≥ 6.70 |  | 
